Measured values taken from ChEMBL document CHEMBL2439978, “Perindopril and ramipril phosphonate analogues as a new class of angiotensin converting enzyme inhibitors” (Bioorg Med Chem, 2013).

Tests used:
[1] = target: T1, Angiotensin-converting enzyme (Homo sapiens, UniProt P12821); test: Inhibition of recombinant human ACE using (7-methoxycoumarin-4-yl)acetyl-Arg-Pro-Pro-Gly-Phe-Ser-Ala-Phe-Lys(2,4-dinitrophenyle)-OH as substrate after 30 mins by fluorescence assay
[2] = target: T1, Angiotensin-converting enzyme; test: Inhibition of ACE (unknown origin)

T1 sequence (P12821 whole entry): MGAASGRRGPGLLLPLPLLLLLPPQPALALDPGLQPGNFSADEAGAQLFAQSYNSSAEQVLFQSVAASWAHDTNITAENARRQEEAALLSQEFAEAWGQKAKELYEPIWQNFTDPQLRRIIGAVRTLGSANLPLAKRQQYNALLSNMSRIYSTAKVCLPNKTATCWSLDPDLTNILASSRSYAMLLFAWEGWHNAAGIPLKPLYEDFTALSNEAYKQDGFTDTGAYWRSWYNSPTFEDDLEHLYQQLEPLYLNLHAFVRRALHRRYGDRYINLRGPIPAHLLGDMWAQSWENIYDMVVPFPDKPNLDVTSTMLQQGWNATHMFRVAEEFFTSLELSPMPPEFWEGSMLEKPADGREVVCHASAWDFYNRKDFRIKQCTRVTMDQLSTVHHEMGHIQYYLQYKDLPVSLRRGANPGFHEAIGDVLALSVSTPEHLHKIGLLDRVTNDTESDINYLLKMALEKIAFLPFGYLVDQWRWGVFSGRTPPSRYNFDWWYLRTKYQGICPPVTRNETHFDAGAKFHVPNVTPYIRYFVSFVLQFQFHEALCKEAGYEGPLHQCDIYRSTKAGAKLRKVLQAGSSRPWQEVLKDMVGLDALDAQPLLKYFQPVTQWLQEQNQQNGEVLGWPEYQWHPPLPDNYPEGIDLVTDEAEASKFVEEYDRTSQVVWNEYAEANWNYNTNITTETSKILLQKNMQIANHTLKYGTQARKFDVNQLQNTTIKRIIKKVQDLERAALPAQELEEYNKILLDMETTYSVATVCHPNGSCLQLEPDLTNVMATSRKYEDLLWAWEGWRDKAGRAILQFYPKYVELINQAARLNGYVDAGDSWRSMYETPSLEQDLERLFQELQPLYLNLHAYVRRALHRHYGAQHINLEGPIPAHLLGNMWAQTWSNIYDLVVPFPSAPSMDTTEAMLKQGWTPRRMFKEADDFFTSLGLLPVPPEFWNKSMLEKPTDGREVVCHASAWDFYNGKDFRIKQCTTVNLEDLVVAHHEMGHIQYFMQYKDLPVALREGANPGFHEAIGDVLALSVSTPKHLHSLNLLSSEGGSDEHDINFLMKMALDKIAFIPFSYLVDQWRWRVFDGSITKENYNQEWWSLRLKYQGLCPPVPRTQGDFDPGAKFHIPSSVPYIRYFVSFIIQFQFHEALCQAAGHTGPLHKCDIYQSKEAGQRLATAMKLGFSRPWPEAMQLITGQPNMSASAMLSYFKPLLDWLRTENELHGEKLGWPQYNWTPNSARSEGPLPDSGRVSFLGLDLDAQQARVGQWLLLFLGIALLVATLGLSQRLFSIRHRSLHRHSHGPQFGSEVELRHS

Structure (SMILES)	IC50 [1] [nM]	IC50 [2] [nM]
CCCC(N[C@@H](C)C(=O)N1[C@H](C(=O)O)C[C@@H]2CCCC[C@@H]21)P(=O)(O)O (stereo partly drawn)	30	
C[C@H](NC(CCc1ccccc1)P(=O)(O)O)C(=O)N1[C@H](C(=O)O)C[C@@H]2CCCC[C@@H]21 (stereo partly drawn)	40	
CCC[C@H](N[C@@H](C)C(=O)N1[C@H](C(=O)O)C[C@@H]2CCCC[C@@H]21)C(=O)OCC [PERINDOPRIL]		1.5
